In patent US20230073777A1, “CYCLIC-AMP RESPONSE ELEMENT BINDING PROTEIN (CBP) AND/OR ADENOVIRAL E1A BINDING PROTEIN OF 300 KDA (P300) DEGRADATION COMPOUNDS AND METHODS OF USE” (CULLGEN (SHANGHAI), INC., priority 2019, published 2023):

Experiments:
LNCaP cells = test: LNCaP cell viability assay (CellTiter-Glo); format: cell-based; settings: for IC50: Homo sapiens, 72 h, LNCaP prostate cancer cell viability inhibition, 3 days; for viability of LNCaP cells: from 10 μM, 12-point 3-fold serial dilution, 3 days (FIG. 4)
Description: LNCaP cells seeded in 96-well plates were treated with 10 μM GNE-781 or selected bivalent compounds, i.e. P-001, P-002, and P-019, following a 12-point 3-fold serial dilution. Three days after treatment, cell viability was determined using the CellTiter-Glo kit (Promega) following manufacturer's instructions. Cell viability was normalized to the mean values of 3 replicates of untreated cells. Dose-dependent response was analyzed following the least-squares non-linear regression method using the GraphPad Prism 5.0 software.
LNCaP cells were treated with GNE-781 or selected bivalent compounds for 3 days at indicated concentrations following a 3-fold serial dilution.
Cells were seeded at a density of 5000 cells per well in 96-well assay plates and treated with test compounds following a 12-point 3-fold serial dilution. Three days later, cell viability was determined using the CellTiter-Glo assay kit according to the manufacturer's instructions. The dose-response curves were determined and IC50 values were calculated using the GraphPad Prism software following a nonlinear regression (least squares fit) method.

P300 = P300 (Homo sapiens, UniProt Q09472); test: Immunoblotting of P300 protein levels in LNCaP or 22RV1 cells; format: cell-based; set-up: LNCaP or 22RV1 cells that express CBP/P300 proteins were treated with GNE-781 or the bivalent compounds; endogenous in cells; host or cells: LNCaP (clone FGC) or 22RV1 cells; settings: percentage of inhibition of p300 at 10 nM (Table 2); read-out: Degradation (10 nM)
Description: Specific exemplary bivalent compounds were characterized in LNCaP or 22RV1 cells. LNCaP or 22RV1 cells that express CBP/P300 proteins were treated with GNE-781 or the bivalent compounds disclosed herein (P-001 to P-174) for indicated hours. Cells were collected, lysed and subject to immunoblotting using an antibody specific to P300 or CBP proteins. Tubulin or vinculin was included as the loading control. DMSO was used as the negative control.
Cultured cells or tissue chunks were washed with cold PBS once and lysed in cold RIPA buffer supplemented with protease inhibitors and phosphatase inhibitors (Beyotime Biotechnology). The solutions were then incubated at 4° C. for 30 minutes with gentle agitation to fully lyse cells. Cell lysates were centrifuged at 13,000 rpm for 10 minutes at 4° C. and pellets were discarded. Total protein concentrations in the lysates were determined by BCA assays (Beyotime Biotechnology). Cell lysates were mixed with Laemmli loading buffer to 1× and heated at 99° C. for 5 min. Proteins were resolved on SDS-PAGE and visualized by chemiluminescence. Images were taken by a ChemiDoc MP Imaging system (Bio-Rad). Protein bands were quantitated using the accompanied software provided by Bio-Rad.

Sequence of P300 (Q09472 whole entry): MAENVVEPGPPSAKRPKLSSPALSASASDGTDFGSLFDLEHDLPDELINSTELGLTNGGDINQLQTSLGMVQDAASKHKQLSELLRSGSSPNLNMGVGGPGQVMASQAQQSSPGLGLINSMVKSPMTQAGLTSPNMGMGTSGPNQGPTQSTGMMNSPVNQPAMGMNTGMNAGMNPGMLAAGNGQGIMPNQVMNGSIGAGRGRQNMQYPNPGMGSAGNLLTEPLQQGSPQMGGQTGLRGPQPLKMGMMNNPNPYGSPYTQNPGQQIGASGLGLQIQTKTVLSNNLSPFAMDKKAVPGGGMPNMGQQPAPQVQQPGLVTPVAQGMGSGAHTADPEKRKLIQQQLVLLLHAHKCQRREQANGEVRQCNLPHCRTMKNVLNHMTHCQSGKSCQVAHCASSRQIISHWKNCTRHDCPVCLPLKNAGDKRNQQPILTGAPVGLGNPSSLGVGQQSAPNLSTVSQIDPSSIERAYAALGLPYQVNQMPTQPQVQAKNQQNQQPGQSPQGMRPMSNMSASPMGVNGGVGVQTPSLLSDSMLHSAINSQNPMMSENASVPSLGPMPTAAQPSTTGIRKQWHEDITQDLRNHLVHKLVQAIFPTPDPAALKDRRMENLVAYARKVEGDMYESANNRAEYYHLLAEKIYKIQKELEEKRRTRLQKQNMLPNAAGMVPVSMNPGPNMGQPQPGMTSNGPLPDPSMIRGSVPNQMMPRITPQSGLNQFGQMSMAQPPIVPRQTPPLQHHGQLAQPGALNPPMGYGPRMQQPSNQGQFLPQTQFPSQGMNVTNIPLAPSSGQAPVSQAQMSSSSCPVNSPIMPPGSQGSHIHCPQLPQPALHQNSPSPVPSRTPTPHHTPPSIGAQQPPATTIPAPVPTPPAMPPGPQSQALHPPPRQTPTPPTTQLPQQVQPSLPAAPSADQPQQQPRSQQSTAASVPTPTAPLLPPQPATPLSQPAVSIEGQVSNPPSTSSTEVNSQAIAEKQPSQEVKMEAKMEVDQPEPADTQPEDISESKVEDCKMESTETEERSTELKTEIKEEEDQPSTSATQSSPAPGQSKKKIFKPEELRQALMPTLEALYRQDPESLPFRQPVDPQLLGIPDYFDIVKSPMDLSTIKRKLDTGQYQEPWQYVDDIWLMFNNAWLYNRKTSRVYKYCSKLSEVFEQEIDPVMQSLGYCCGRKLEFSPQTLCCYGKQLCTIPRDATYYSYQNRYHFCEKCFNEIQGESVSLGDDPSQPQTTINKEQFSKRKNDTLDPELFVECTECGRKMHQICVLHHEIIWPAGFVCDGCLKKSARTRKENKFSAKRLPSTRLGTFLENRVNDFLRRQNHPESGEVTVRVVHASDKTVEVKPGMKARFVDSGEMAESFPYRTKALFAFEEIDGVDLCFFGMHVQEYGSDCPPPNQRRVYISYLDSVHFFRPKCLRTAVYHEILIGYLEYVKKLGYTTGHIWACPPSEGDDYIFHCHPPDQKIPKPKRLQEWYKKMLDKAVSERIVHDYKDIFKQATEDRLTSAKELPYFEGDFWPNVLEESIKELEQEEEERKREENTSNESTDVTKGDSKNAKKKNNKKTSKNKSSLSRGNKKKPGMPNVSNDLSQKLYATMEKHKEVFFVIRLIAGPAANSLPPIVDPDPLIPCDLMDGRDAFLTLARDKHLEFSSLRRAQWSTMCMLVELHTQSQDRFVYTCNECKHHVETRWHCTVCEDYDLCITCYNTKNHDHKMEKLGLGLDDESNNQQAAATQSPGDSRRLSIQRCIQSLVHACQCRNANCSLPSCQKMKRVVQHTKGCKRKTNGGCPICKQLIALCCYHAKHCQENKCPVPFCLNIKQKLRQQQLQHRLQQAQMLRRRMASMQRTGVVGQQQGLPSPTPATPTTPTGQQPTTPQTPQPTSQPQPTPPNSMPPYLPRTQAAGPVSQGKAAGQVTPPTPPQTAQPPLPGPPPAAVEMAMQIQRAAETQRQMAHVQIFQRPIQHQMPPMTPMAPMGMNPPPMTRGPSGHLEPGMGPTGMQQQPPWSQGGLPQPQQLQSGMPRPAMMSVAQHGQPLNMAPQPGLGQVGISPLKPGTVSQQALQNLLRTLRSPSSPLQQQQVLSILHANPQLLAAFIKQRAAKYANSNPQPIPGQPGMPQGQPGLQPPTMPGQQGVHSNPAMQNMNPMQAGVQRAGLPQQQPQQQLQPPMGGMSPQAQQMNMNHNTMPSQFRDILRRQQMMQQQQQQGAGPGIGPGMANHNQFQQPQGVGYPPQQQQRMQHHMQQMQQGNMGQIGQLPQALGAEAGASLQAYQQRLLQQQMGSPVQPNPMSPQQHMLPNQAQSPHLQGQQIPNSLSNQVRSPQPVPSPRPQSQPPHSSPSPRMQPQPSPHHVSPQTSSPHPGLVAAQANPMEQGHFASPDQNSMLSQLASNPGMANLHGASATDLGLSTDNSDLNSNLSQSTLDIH

Row | SMILES | IC50 (LNCaP cells; CellTiter-Glo (Table 2)) [nM] | inhibition at 0.01 µM (P300) [%] | IC50 (LNCaP cells; CellTiter-Glo (Table 3)) [nM] | viability of LNCaP cells (LNCaP cells)
1 | CNC(=O)N1CCc2c(c(N3CCCc4cc(-c5cnn(CC(=O)NCCCCCCCCCC(=O)NC(C(=O)N6C[C@H](O)C[C@H]6C(=O)NCc6ccc(-c7scnc7C)cc6)C(C)(C)C)c5)c(C(F)F)cc43)nn2C2CCOCC2)C1 (stereo in doubt) [P-049, 3-(7-(Difluoromethyl)-6-(1-(2-((10-(((S)-1-((2S,4R)-4-hydroxy-2-((4-(4-methylthiazol-5-yl)benzyl)carbamoyl)pyrrolidin-1-yl)-3,3-dimethyl-1-oxobutan-2-yl)amino)-10-oxodecyl)amino)-2-oxoethyl)-1H-pyrazol-4-yl)-3,4-dihydroquinolin-1(2H)-yl)-N-methyl-1-(tetrahydro-2H-pyran-4-yl)-1,4,6,7-tetrahydro-5H-pyrazolo[4,3-c]pyridine-5-carboxamide] | 234 | < 20 |  | 
2 | CNC(=O)N1CCc2c(c(N3CCCc4cc(-c5cnn(C)c5)c(C(F)F)cc43)nn2C2CCN(C(=O)CNc3ccc4c(c3)C(=O)N(C3CCC(=O)NC3=O)C4=O)CC2)C1 (stereo not drawn) [P-001, 3-(7-(Difluoromethyl)-6-(1-methyl-1H-pyrazol-4-yl)-3,4-dihydroquinolin-1(2H)-yl)-1-(1-((2-(2,6-dioxopiperidin-3-yl)-1,3-dioxoisoindolin-5-yl)glycyl)piperidin-4-yl)-N-methyl-1,4,6,7-tetrahydro-5H-pyrazolo[4,3-c]pyridine-5-carboxamide] | 185 | 50 to 80 |  | dose-dependently suppressed viability
3 | CNC(=O)N1CCc2c(c(N3CCCc4cc(-c5cnn(C)c5)c(C(F)F)cc43)nn2C2CCN(C(=O)CCNc3ccc4c(c3)C(=O)N(C3CCC(=O)NC3=O)C4=O)CC2)C1 (stereo not drawn) [P-002, 3-(7-(Difluoromethyl)-6-(1-methyl-1H-pyrazol-4-yl)-3,4-dihydroquinolin-1(2H)-yl)-1-(1-(3-((2-(2,6-dioxopiperidin-3-yl)-1,3-dioxoisoindolin-5-yl)amino)propanoyl)piperidin-4-yl)-N-methyl-1,4,6,7-tetrahydro-5H-pyrazolo[4,3-c]pyridine-5-carboxamide] | 42.1 | 50 to 80 |  | dose-dependently suppressed viability
4 | CNC(=O)N1CCc2c(c(N3CCCc4cc(-c5cnn(C)c5)c(C(F)F)cc43)nn2C2CCN(C(=O)CCCNc3ccc4c(c3)C(=O)N(C3CCC(=O)NC3=O)C4=O)CC2)C1 (stereo not drawn) [P-003, 3-(7-(Difluoromethyl)-6-(1-methyl-1H-pyrazol-4-yl)-3,4-dihydroquinolin-1(2H)-yl)-1-(1-(4-((2-(2,6-dioxopiperidin-3-yl)-1,3-dioxoisoindolin-5-yl)amino)butanoyl)piperidin-4-yl)-N-methyl-1,4,6,7-tetrahydro-5H-pyrazolo[4,3-c]pyridine-5-carboxamide] | 35.7 | 50 to 80 |  | 
5 | CNC(=O)N1CCc2c(c(N3CCCc4cc(-c5cnn(C)c5)c(C(F)F)cc43)nn2C2CCN(C(=O)CCCCNc3ccc4c(c3)C(=O)N(C3CCC(=O)NC3=O)C4=O)CC2)C1 (stereo not drawn) [P-004, 3-(7-(difluoromethyl)-6-(1-methyl-1H-pyrazol-4-yl)-3,4-dihydroquinolin-1(2H)-yl)-1-(1-(5-((2-(2,6-dioxopiperidin-3-yl)-1,3-dioxoisoindolin-5-yl)amino)pentanoyl)piperidin-4-yl)-N-methyl-1,4,6,7-tetrahydro-5H-pyrazolo[4,3-c]pyridine-5-carboxamide] | 7.1 | > 80 |  | 
6 | CNC(=O)N1CCc2c(c(N3CCCc4cc(-c5cnn(C)c5)c(C(F)F)cc43)nn2C2CCN(C(=O)CCCCCNc3ccc4c(c3)C(=O)N(C3CCC(=O)NC3=O)C4=O)CC2)C1 (stereo not drawn) [P-005, 3-(7-(difluoromethyl)-6-(1-methyl-1H-pyrazol-4-yl)-3,4-dihydroquinolin-1(2H)-yl)-1-(1-(6-((2-(2,6-dioxopiperidin-3-yl)-1,3-dioxoisoindolin-5-yl)amino)hexanoyl)piperidin-4-yl)-N-methyl-1,4,6,7-tetrahydro-5H-pyrazolo[4,3-c]pyridine-5-carboxamide] | 4 | > 80 |  | 
7 | CNC(=O)N1CCc2c(c(N3CCCc4cc(-c5cnn(C)c5)c(C(F)F)cc43)nn2C2CCN(C(=O)CCCCCCNc3ccc4c(c3)C(=O)N(C3CCC(=O)NC3=O)C4=O)CC2)C1 (stereo not drawn) [P-006, 3-(7-(difluoromethyl)-6-(1-methyl-1H-pyrazol-4-yl)-3,4-dihydroquinolin-1(2H)-yl)-1-(1-(7-((2-(2,6-dioxopiperidin-3-yl)-1,3-dioxoisoindolin-5-yl)amino)heptanoyl)piperidin-4-yl)-N-methyl-1,4,6,7-tetrahydro-5H-pyrazolo[4,3-c]pyridine-5-carboxamide] | 3.2 | > 80 |  | 
8 | CNC(=O)N1CCc2c(c(N3CCCc4cc(-c5cnn(C)c5)c(C(F)F)cc43)nn2C2CCN(C(=O)CCOCCNc3ccc4c(c3)C(=O)N(C3CCC(=O)NC3=O)C4=O)CC2)C1 (stereo not drawn) [P-008, 3-(7-(Difluoromethyl)-6-(1-methyl-1H-pyrazol-4-yl)-3,4-dihydroquinolin-1(2H)-yl)-1-(1-(3-(2-((2-(2,6-dioxopiperidin-3-yl)-1,3-dioxoisoindolin-5-yl)amino)ethoxy)propanoyl)piperidin-4-yl)-N-methyl-1,4,6,7-tetrahydro-5H-pyrazolo[4,3-c]pyridine-5-carboxamide] | > 10000 | 20 to 50 |  | 
9 | CNC(=O)N1CCc2c(c(N3CCCc4cc(-c5cnn(C)c5)c(C(F)F)cc43)nn2C2CCN(C(=O)CCOCCOCCNc3ccc4c(c3)C(=O)N(C3CCC(=O)NC3=O)C4=O)CC2)C1 (stereo not drawn) [P-009, 3-(7-(difluoromethyl)-6-(1-methyl-1H-pyrazol-4-yl)-3,4-dihydroquinolin-1(2H)-yl)-1-(1-(3-(2-(2-((2-(2,6-dioxopiperidin-3-yl)-1,3-dioxoisoindolin-5-yl)amino)ethoxy)ethoxy)propanoyl)piperidin-4-yl)-N-methyl-1,4,6,7-tetrahydro-5H-pyrazolo[4,3-c]pyridine-5-carboxamide] | 114 | 20 to 50 |  | 

Further lines, with some results ahead:

Row | IC50 (LNCaP cells; CellTiter-Glo (Table 2)) [nM] | inhibition at 0.01 µM (P300) [%] | IC50 (LNCaP cells; CellTiter-Glo (Table 3)) [nM] | SMILES | viability of LNCaP cells (LNCaP cells)
10 |  |  | > 500 | CC(=O)N1CCc2c(c(N3CCCc4cc(-c5cnn(C)c5)c(C(F)F)cc43)nn2C2CCN(C3CCN(CCCOc4cccc5c4C(=O)N(C4CCC(=O)NC4=O)C5=O)CC3)CC2)C1 (stereo not drawn) [P-139, 4-(3-(4-(5-Acetyl-3-(7-(difluoromethyl)-6-(1-methyl-1H-pyrazol-4-yl)-3,4-dihydroquinolin-1(2H)-yl)-4,5,6,7-tetrahydro-1H-pyrazolo[4,3-c]pyridin-1-yl)-[1,4′-bipiperidin]-1′-yl)propoxy)-2-(2,6-dioxopiperidin-3-yl)isoindoline-1,3-dione] | 
11 |  |  | > 500 | CC(=O)N1CCc2c(c(N3CCCc4cc(-c5cnn(C)c5)c(C(F)F)cc43)nn2C2CCN(C3CN(CCCOc4cccc5c4C(=O)N(C4CCC(=O)NC4=O)C5=O)C3)CC2)C1 (stereo not drawn) [P-140, 4-(3-(3-(4-(5-Acetyl-3-(7-(difluoromethyl)-6-(1-methyl-1H-pyrazol-4-yl)-3,4-dihydroquinolin-1(2H)-yl)-4,5,6,7-tetrahydro-1H-pyrazolo[4,3-c]pyridin-1-yl)piperidin-1-yl)azetidin-1-yl)propoxy)-2-(2,6-dioxopiperidin-3-yl)isoindoline-1,3-dione] | 
12 |  |  | > 1000 | CNC(=O)N1CCc2c(c(N3CCCc4cc(-c5cnn(C)c5)c(C(F)F)cc43)nn2C2CCN(CCN3CCN(Cc4cccc5c4C(=O)N(C4CCC(=O)NC4=O)C5=O)CC3)CC2)C1 (stereo not drawn) [P-144, 3-(7-(Difluoromethyl)-6-(1-methyl-1H-pyrazol-4-yl)-3,4-dihydroquinolin-1(2H)-yl)-1-(1-(2-(4-((2-(2,6-dioxopiperidin-3-yl)-1,3-dioxoisoindolin-4-yl)methyl)piperazin-1-yl)ethyl)piperidin-4-yl)-N-methyl-1,4,6,7-tetrahydro-5H-pyrazolo[4,3-c]pyridine-5-carboxamide] | 
13 |  |  | > 1000 | CC(=O)N1CCc2c(c(N3CCCc4cc(-c5cnn(C)c5)c(C(F)F)cc43)nn2C2CCN(CCN3CCN(Cc4cccc5c4C(=O)N(C4CCC(=O)NC4=O)C5=O)CC3)CC2)C1 (stereo not drawn) [P-145, 4-((4-(2-(4-(5-Acetyl-3-(7-(difluoromethyl)-6-(1-methyl-1H-pyrazol-4-yl)-3,4-dihydroquinolin-1(2H)-yl)-4,5,6,7-tetrahydro-1H-pyrazolo[4,3-c]pyridin-1-yl)piperidin-1-yl)ethyl)piperazin-1-yl)methyl)-2-(2,6-dioxopiperidin-3-yl)isoindoline-1,3-dione] | 
